Several values for one entry are separate records, joined by “and”; a condition that tells them apart may be missing. Equal entries are not always repeated.
Legend:
[1] = test system: AP-DNA; assay: Oxime formation kinetics of probe with AP-DNA; format: biochemical; conditions: Tris buffer, probe concentration 10-100 μM
[2] = test system: AP-DNA; assay: Oxime formation kinetics of probe with AP-DNA; format: biochemical
Method: FIG. 3 provides representative plots for calculations of k2 for Compound (1) (CCVJ1) under various buffer conditions with oligo 15. Plots were fitted in OriginPro 8.5 according to the equation derived by Larsen et. al.^5 for second-order rate constants of oxime formation. Apparent second-order rate constants were calculated as the average of three replicates.
FIG. 5A provides fluorescence real-times responses for oxime formation under varied conditions. The Time course of oxime formation between Compound (1) (CCVJ1) (5 μM) and AP-DNA (20 μM) under varied buffer conditions (50 mM) is shown. Ionic strength adjusted to 150 mM with NaCl
Next the reaction rates with CCVJ1 were evaluated. To measure oxime formation kinetics, 5 μM CCVJ1 was reacted with 20 μM AP DNA, and the resulting fluorescence time course was used to determine second-order rate constants by nonlinear regression analysis. Tris buffer was selected since it is commonly used in glycosylase assays with a salt concentration of 100 mM NaCl.
In addition to Tris buffer, oxime formation kinetics were also measured for CCVJ1 with AP DNA in a solution of a catalytic amine buffer previously shown to accelerate oxime formation. To this end, it was employed 50 mM N,N-dimethylethylenediamine (DEDA)•HCl buffered to a pH of 7.0 in place of the above Tris buffers. […] Such rapid rates of oxime formation at neutral pH are unprecedented for unactivated aldehydes.
In addition to the 5′ and 3′ neighboring bases, studies were done of the effect of the orphaned base Z paired opposite the abasic site on the UBER probe system (FIG. 10, panels C-D). Using the sequence where X=C and Y=G, the identity was varied of the base Z opposite the AP site. […] As a result, the smaller pyrimidine bases yielded a greater fluorescence light up response than the larger purine bases. It was also observed a strong effect by the opposing base on the rate of oxime formation (FIG. 10, panel D). […] This trend is in contrast to the neighboring base effect discussed above in which stronger stacking bases accelerated the rate of oxime formation.
General procedure for creating AP site DNA: A deoxyuridine containing oligonucleotide (typically 5-20 μM) was treated with 10 U/mL E. coli UDG (New England Biolabs) for 10 minutes at 37° C. in buffer to create AP site containing DNA (see below for MALDI-TOF confirmation). The hairpin was then reacted with probe from a DMSO stock solution (final DMSO concentration <5%).
Fluorescence time courses: Unless otherwise stated, fluorescence time courses were collected on a Fluoroskan Ascent Microplate Fluorometer (Thermo Fisher Scientific) with black, non-binding 384 well plates (Greiner) at a reaction volume of 60 μL with 50 mM Tris buffer pH 7 (ionic strength adjusted to 100 mM with NaCl) with a fluorescein filter set (Ex. 485, Em. 538).

[3] = test system: non-lesion containing DNA hairpin (undamaged double stranded DNA); assay: Fluorescence of probe with non-lesion DNA hairpin (non-covalent); format: binding; conditions: 5 μM probe, 20 μM DNA; over free probe
Method: (§1) FIG. 9 provides interaction between Compound (1) (CCVJ1) and DNA. […] (Ex. 485, Em. 538).
(§2) To further explore the hypothesis that the oxime rate acceleration in these AP-site DNAs was related to base stacking interactions, the fluorescence was measured of CCVJ1 in the presence and absence of a non-lesion containing DNA hairpin.

[4] = test system: AP site-containing DNA; assay: Competition for oxime formation between CCVJ1 and AP site-containing DNA; format: biochemical
Method: FIG. 6 provides effect of adding exemplary linker NH2CH2CH2ONH2 to the reaction of Compound (1) (CCVJ1) (5 μM) with AP site containing DNA (20 μM) in buffer.
as §1
FIG. 14 provides effect of competing aldehydes/ketones on maximum fluorescence signal.
Additional experiments were performed to study the origins of this unusually rapid reaction. […] To test the effect that proximity between the alkoxyamine and planar portion of the probe had on oxime kinetics in our probes, probes were synthesized having variable-length linkers (CCVJ2 and CCVJ3) from aldehyde reactive linkers L2 and L3 respectively (FIG. 2A). […] To test the importance of a double-stranded DNA structure to the rate and fluorescence response, an AP-containing single-stranded DNA oligonucleotide was reacted with CCVJ1. At pH 7, CCVJ1 reacted with a second-order rate constant of 33 M^−1s^−1 with the single-stranded substrate, roughly 5-fold slower than a double-stranded hairpin with identical sequence context (FIG. 8).
as §2
Since the probe design involves conformational restriction to induce a light-up signal, it was hypothesized that off-target oxime formation with small molecules might induce a relatively small signal relative to DNA, thus providing a measure of selectivity in signaling. […] Another potential aspect is that ketones or aldehydes in the environment might compete with the DNA AP site to react with the aminooxy group, thereby consuming the free probe and reducing the maximum signal. Initial testing of the reactivity of CCVJ1 with AP site-containing DNA in the presence of increasing amounts of competing 2-deoxyribose, the closest small-molecule analogue to the DNA AP site. […] This was repeated this experiment with pyruvic acid, a highly reactive ketone and a common cellular metabolite.

## N#C/C(=C\c1cc2c3c(c1)CCCN3CCC2)C(=O)NCCON [CCVJ1]
[1]
  lag time tss of UBER probe coupled assay: 5 to 50 min
[2]; AP hairpin X=C, Y=G, Z=C
  rate of oxime formation with optimal neighboring bases: 320 ± 13 M⁻¹ s⁻¹
[2]; DEDA pH 7 (50 mM N,N-dimethylethylenediamine HCl)
  Apparent second-order rate constant of oxime formation k2: 440 M⁻¹ s⁻¹ and 440 ± 12 M⁻¹ s⁻¹
[2]; Tris pH 7, 5 μM CCVJ1, 20 μM AP DNA
  Apparent second-order rate constant of oxime formation k2: 147 M⁻¹ s⁻¹ and 147 ± 8 M⁻¹ s⁻¹
[2]; Tris pH 7.5
  Apparent second-order rate constant of oxime formation k2: 51 ± 2 M⁻¹ s⁻¹
[2]; Tris pH 8
  Apparent second-order rate constant of oxime formation k2: 29 ± 1 M⁻¹ s⁻¹
[2]; pH 7.0
  rate in DEDA buffer, times faster than in Tris: ~3 times
  rate, times faster than typical oxime formation in neutral aqueous buffer: 10^3-10^4 times
[3]
  increase in fluorescence intensity upon addition of non-lesion DNA hairpin: ~2.5 fold
[4]; 20 μM pseudo AP hairpin, 20 μM AP DNA, 5 μM CCVJ1
  effect of equimolar pseudo AP DNA on rate of apparent oxime formation: no effect on the rate of apparent oxime formation
[4]; 1 mM deoxyribose (200 equivalents)
  effect of competing 2-deoxyribose on maximum signal: no effect on the maximum signal
[4]; 4 mM deoxyribose (800 equivalents)
  signal retained compared to the AP DNA alone: 85%
[4]; up to 200 μM pyruvate (40 equivalents)
  effect of competing pyruvate on overall signal: no significant reduction in overall signal

— patent US20210147932A1, “FLUORESCENT PROBES FOR QUANTIFICATION OF DNA DAMAGE AND REPAIR” (The Board of Trustees of the Leland Stanford Junior …, priority 2019, published 2021)
